Test: Part 2 (MAD): plasma pharmacokinetics after BID oral KAR5585 for 14 days (incl. accumulation ratios and dose proportionality)
[1] = 100 mg (Cohort 2) to 400 mg (Cohort 4), 4-fold increase in dose, fed
[2] = 100 mg KAR5585 BID, fasted, Cohort 1
[3] = 100 mg KAR5585 BID, fasted, Part 2 Cohort 1, mean
[4] = 100 mg KAR5585 BID, fed, Cohort 2
[5] = 100 mg KAR5585 BID, fed, Part 2 Cohort 2, mean
[6] = KAR5585 100 mg BID fasted, Cohort 1, Day 1 AM, geo. mean
[7] = KAR5585 100 mg BID fasted, Cohort 1, Day 1 AM, mean
[8] = KAR5585 100 mg BID fasted, Cohort 1, Day 14/Day 1 accumulation ratio, geo. mean
[9] = KAR5585 100 mg BID fasted, Cohort 1, Day 14/Day 1 accumulation ratio, mean
[10] = KAR5585 100 mg BID fasted, Cohort 1, Day 14, geo. mean
[11] = KAR5585 100 mg BID fasted, Cohort 1, Day 14, mean
[12] = KAR5585 100 mg BID fed, Cohort 2, Day 1 AM, geo. mean
[13] = KAR5585 100 mg BID fed, Cohort 2, Day 1 AM, mean
[14] = KAR5585 100 mg BID fed, Cohort 2, Day 1 PM, geo. mean
[15] = KAR5585 100 mg BID fed, Cohort 2, Day 1 PM, mean
[16] = KAR5585 100 mg BID fed, Cohort 2, Day 7 AM, Day 7/Day 1 accumulation ratio, geo. mean
[17] = KAR5585 100 mg BID fed, Cohort 2, Day 7 AM, Day 7/Day 1 accumulation ratio, mean
[18] = KAR5585 100 mg BID fed, Cohort 2, Day 7 AM, geo. mean
[19] = KAR5585 100 mg BID fed, Cohort 2, Day 7 AM, mean
[20] = KAR5585 100 mg BID fed, Cohort 2, Day 7 PM, Day 7/Day 1 accumulation ratio, geo. mean
[21] = KAR5585 100 mg BID fed, Cohort 2, Day 7 PM, Day 7/Day 1 accumulation ratio, mean
[22] = KAR5585 100 mg BID fed, Cohort 2, Day 7 PM, geo. mean
[23] = KAR5585 100 mg BID fed, Cohort 2, Day 7 PM, mean
[24] = KAR5585 100 mg BID fed, Cohort 2, Day 14 AM, Day 14/Day 1 accumulation ratio, geo. mean
[25] = KAR5585 100 mg BID fed, Cohort 2, Day 14 AM, Day 14/Day 1 accumulation ratio, mean
[26] = KAR5585 100 mg BID fed, Cohort 2, Day 14 AM, geo. mean
[27] = KAR5585 100 mg BID fed, Cohort 2, Day 14 AM, mean
[28] = KAR5585 200 mg BID fed, Cohort 3, Day 1 AM, geo. mean
[29] = KAR5585 200 mg BID fed, Cohort 3, Day 1 AM, mean
[30] = KAR5585 200 mg BID fed, Cohort 3, Day 1 PM, geo. mean

Text: Food effect was to be evaluated in Part 1, Period 2.
Pharmacokinetic data were to be summarized descriptively.

Nc1nc(O[C@H](c2ccc(Cl)cc2-c2ccccc2)C(F)(F)F)cc(N2CCC3(CC2)CN[C@H](C(=O)O)C3)n1 [KAR5417, (S)-8-(2-amino-6-((R)-1-(5-chloro-[1,1T-biphenyl]-2-yl)-2,2,2-trifluoroeth-oxy)pyrimidin-4-yl)-2,8-diazaspiro[4.5]decane-3-carboxylic acid]
fold increase in mean AUC0-12, Day 1 [1]: 7.0 fold | fold increase in mean AUC0-12, Day 14 [1]: 4.6 fold | fold increase in mean AUC0-24, Day 1 [1]: 6.45 fold | fold increase in mean AUC0-24, Day 14 [1]: 4.45 fold | fold increase in mean Cmax, Day 1 [1]: 6.9 fold | fold increase in mean Cmax, Day 14 [1]: ~4.5 fold | RAUC0-12 (accumulation ratio for AUC0-12), range Day 7/Day 1 and Day 14/Day 1 (100 mg KAR5585 BID): 2.19-2.57 | half-life, Day 14 (100 mg KAR5585 BID, fasted): 18.8 h | peak mean concentration of KAR5417 relative to KAR5585, Day 1 [2]: approximately 7.25 fold | peak mean concentration of KAR5417 relative to KAR5585, Day 14 [2]: ~9.1 fold | time peak plasma concentrations were reached, Day 1 [2]: 2.0 to 6.0 h | AUC0-12, Day 1 [3]: 741 ng·h/mL | AUC0-24, Day 14 [3]: 1650 ng·h/mL | mean apparent elimination half-life, Day 14 (100 mg KAR5585 BID, fed): 19.6 h | Cmax (peak mean concentration), Day 1 [4]: 85.9 ng/mL | Cmax (peak mean concentration), Day 14 [4]: 168 ng/mL | mean Cmax plasma concentrations, range on all dosing days [4]: 85.9 to 168 ng/mL | AUC0-12, Day 1 [5]: 470 ng·h/mL | AUC0-24, Day 14 [5]: 1220 ng·h/mL | RAUC0-12 (accumulation ratio for AUC0-12), range Day 7/Day 1 and Day 14/Day 1 (200 mg KAR5585 BID): 1.09-1.34 | mean apparent elimination half-life, Day 14 (200 mg KAR5585 BID, fed): 25.0 h | RAUC0-12 (accumulation ratio for AUC0-12), range Day 7/Day 1 and Day 14/Day 1 (400 mg KAR5585 BID): 1.65-2.38 | mean apparent elimination half-life, Day 14 (400 mg KAR5585 BID, fed): 30.6 h | steady-state plasma levels achieved by (BID oral KAR5585 for 14 days): ≤ 7 days | AUC0-12 [6]: 643 ng·h/mL | AUC0-∞ [6]: 769 ng·h/mL | C12 [6]: 19.5 ng/mL | Cmax [6]: 101 ng/mL | Cmax/D [6]: 1.01 (ng/ml)/mg | t1/2 [6]: 3.37 h | AUC0-12 [7]: 741 ng·h/mL | AUC0-∞ [7]: 876 ng·h/mL | C12 [7]: 21.3 ng/mL | Cmax/D [7]: 1.21 (ng/ml)/mg | t1/2 [7]: 3.43 h | RAUC0-12 [8]: 1.64 | RCmax [8]: 1.75 | RAUC0-12 [9]: 1.83 | RCmax [9]: 2.56 | AUC0-12 [10]: 1150 ng·h/mL | AUC0-24 [10]: 1490 ng·h/mL | AUC0-24/D [10]: 14.9 (hr*ng/ml)/mg | AUC0-∞ [10]: 1960 ng·h/mL | C12 [10]: 42.0 ng/mL | C24 [10]: 18.1 ng/mL | Cmax [10]: 177 ng/mL | Cmax/D [10]: 1.77 (ng/ml)/mg | t1/2 [10]: 17.6 h | AUC0-12 [11]: 1280 ng·h/mL | AUC0-24 [11]: 1650 ng·h/mL | AUC0-24/D [11]: 16.5 (hr*ng/ml)/mg | AUC0-∞ [11]: 2220 ng·h/mL | C12 [11]: 46.3 ng/mL | Cmax/D [11]: 1.94 (ng/ml)/mg | t1/2 [11]: 18.8 h | AUC0-12 [12]: 428 ng·h/mL | AUC0-∞ [12]: 516 ng·h/mL | C12 [12]: 15.4 ng/mL | Cmax [12]: 79.2 ng/mL | Cmax/D [12]: 0.792 (ng/ml)/mg | t1/2 [12]: 4.16 h | AUC0-12 [13]: 470 ng·h/mL | AUC0-∞ [13]: 564 ng·h/mL | C12 [13]: 17.2 ng/mL | Cmax [13]: 85.9 ng/mL | Cmax/D [13]: 0.859 (ng/ml)/mg | t1/2 [13]: 4.18 h | AUC0-12 [14]: 714 ng·h/mL | AUC0-24/D [14]: 5.78 (hr*ng/ml)/mg | AUC0-∞ [14]: 1090 ng·h/mL | C12 [14]: 39.5 ng/mL | Cmax [14]: 119 ng/mL | Cmax/D [14]: 1.19 (ng/ml)/mg | t1/2 [14]: 6.95 h | AUC0-12 [15]: 748 ng·h/mL | AUC0-24 [15]: 1220 ng·h/mL | AUC0-24/D [15]: 6.09 (hr*ng/ml)/mg | AUC0-∞ [15]: 1140 ng·h/mL | C12 [15]: 43.1 ng/mL | Cmax [15]: 130 ng/mL | Cmax/D [15]: 1.3 (ng/ml)/mg | t1/2 [15]: 7.00 h | RAUC0-12 [16]: 2.45 | RCmax [16]: 2.02 | RAUC0-12 [17]: 2.57 | RCmax [17]: 2.07 | AUC0-12 [18]: 1050 ng·h/mL | AUC0-∞ [18]: 1380 ng·h/mL | C12 [18]: 44.3 ng/mL | Cmax/D [18]: 1.60 (ng/ml)/mg | t1/2 [18]: 5.24 h | AUC0-12 [19]: 1080 ng·h/mL | AUC0-∞ [19]: 1410 ng·h/mL | C12 [19]: 45.1 ng/mL | Cmax [19]: 168 ng/mL | Cmax/D [19]: 1.68 (ng/ml)/mg | t1/2 [19]: 5.31 h | RAUC0-12 [20]: 2.04 | RCmax [20]: 1.34 | RAUC0-12 [21]: 2.19 | RCmax [21]: 1.43 | AUC0-12 [22]: 875 ng·h/mL | AUC0-24 [22]: 1930 ng·h/mL | AUC0-24/D [22]: 9.64 (hr*ng/ml)/mg | AUC0-∞ [22]: 1700 ng·h/mL | C12 [22]: 61.4 ng/mL | Cmax [22]: 106 ng/mL | Cmax/D [22]: 1.06 (ng/ml)/mg | t1/2 [22]: 7.91 h | AUC0-12 [23]: 902 ng·h/mL | AUC0-24 [23]: 1990 ng·h/mL | AUC0-24/D [23]: 9.93 (hr*ng/ml)/mg | AUC0-∞ [23]: 1730 ng·h/mL | C12 [23]: 62.3 ng/mL | Cmax/D [23]: 1.12 (ng/ml)/mg | t1/2 [23]: 8.10 h | RAUC0-12 [24]: 2.09 | RCmax [24]: 1.90 | RAUC0-12 [25]: 2.23 | RCmax [25]: 1.98 | AUC0-12 [26]: 900 ng·h/mL | AUC0-24 [26]: 1220 ng·h/mL | AUC0-∞ [26]: 1780 ng·h/mL | C12 [26]: 35.4 ng/mL | C24 [26]: 19.3 ng/mL | Cmax [26]: 155 ng/mL | Cmax/D [26]: 1.55 (ng/ml)/mg | t1/2 [26]: 19.0 h | AUC0-12 [27]: 943 ng·h/mL | AUC0-24 [27]: 1270 ng·h/mL | AUC0-∞ [27]: 1830 ng·h/mL | C12 [27]: 36.4 ng/mL | C24 [27]: 19.6 ng/mL | Cmax [27]: 168 ng/mL | Cmax/D [27]: 1.68 (ng/ml)/mg | t1/2 [27]: 19.6 h | AUC0-12 [28]: 1620 ng·h/mL | AUC0-∞ [28]: 1980 ng·h/mL | C12 [28]: 56.6 ng/mL | Cmax [28]: 336 ng/mL | Cmax/D [28]: 1.68 (ng/ml)/mg | t1/2 [28]: 4.41 h | AUC0-12 [29]: 1700 ng·h/mL | C12 [29]: 60.7 ng/mL | Cmax [29]: 357 ng/mL | Cmax/D [29]: 1.79 (ng/ml)/mg | t1/2 [29]: 4.49 h | AUC0-12 [30]: 1910 ng·h/mL | AUC0-24 [30]: 3540 ng·h/mL | AUC0-24/D [30]: 8.85 (hr*ng/ml)/mg | AUC0-∞ [30]: 2640 ng·h/mL | C12 [30]: 102 ng/mL | Cmax [30]: 307 ng/mL | Cmax/D [30]: 1.54 (ng/ml)/mg
